Source: ChEMBL document CHEMBL1201862, “PubChem BioAssay data set” (2004)
Calls of active or inactive are those of the source.

Experiments:
[1] = DRD BJ cell killing, Ras synthetic lethality – DRD BJ fibroblasts, HRASV12, dry powder, dose response (AID 493049); type: functional, cell-based
[2] = HRAS-V12 fibroblast viability reduction – cell-based, Alamar Blue, dry powder, Ras selective lethality project, primary screen (AID 493045); type: functional; conditions: BJeLR
[3] = BJeH cell viability loss – BJeH cells, dry powder, counter-screen for Ras selective lethality project, dose response (AID 493054); type: functional, cell-based
[4] = BJeHLT cell viability loss – BJeHLT cells, dry powder, counter-screen for Ras selective lethality project, dose response (AID 493052); type: functional, cell-based; conditions: Homo sapiens
BJ [5] = test: cells; type: functional, cell-based; conditions: Homo sapiens
[6] = alpha-synuclein stem-loop translation blockers – luminescence, H4 neuroglioblastoma cells, dose confirmation, confirmation (AID 2454); type: functional, cell-based;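 also: H4 neuroglioblastoma cells carrying an alpha-synuclein 5'UTR luciferase reporter; potency for inhibition of the luciferase signal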
[7] = Luminescence Cell-Based Dose Response HTS to Identify Inhibitors of 5'UTR Stem-Loop Driven Prion Protein mRNA Translation in H4 Neuroglioblastoma Cells. [Related pubchem assays: 1827 (Project Summary), 1813 (Primary HTS)]; type: functional
[8] = luciferase reporter signal reduction – luminescence, H4-C neuroglioblastoma cells, dose response (AID 2458); type: functional, cell-based;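 also: H4 neuroglioblastoma cells stably carrying a luciferase reporter gene fusion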
BJ [9] = test: BJ-TERT-LT-ST fibroblast viability loss – cell-based, RAS-independent, luminescence, dose response (AID 1935); type: functional; conditions: Homo sapiens;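 also: BJ fibroblasts immortalized with TERT plus LT and ST oncogenes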
[10] = HEK-293T viability loss after treatment – luminescence, T-cell screen hits, cytotoxicity control for TCR NF-kB inhibitor project, dose response (AID 489026); type: functional, cell-based;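 also: cells exposed to compound about 14 hours before the viability readout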
[11] = alpha-synuclein stem-loop luciferase translation blockers – H4 neuroglioma cells, luminescence, confirmation (AID 1988); type: functional, cell-based
cells = type: functional, cell-based
J774.A1 = test: Confirmation of image-based Screening Assay for Inhibitors of Phagocytosis. [Related pubchem assays (depositor defined):AID1029, AID1643]; type: functional, cell-based; conditions: Mus musculus
BJ [12] = test: BJ-TERT fibroblast viability loss – cell-based, RAS-independent, luminescence, dose response (AID 1933); type: functional; conditions: Homo sapiens
[13] = toxicity toward HEK293 cells – cell-based, dry powder samples, cytotoxicity control, dose response (AID 720567); type: functional
[14] = luciferase reporter signal suppression in cells – H4 neuroglioma cells, luminescence, dose response (AID 1990); type: functional, cell-based
[15] = DRD fibroblast viability loss – cell-based, non-viral oncogenic, luminescence, dose response (AID 1934); type: functional; conditions: Homo sapiens
Genome polyprotein = Genome polyprotein (dengue virus type 2, UniProt P29990); test: flavivirus cap methylation enzyme inhibition – biochemical, confirmation dose response, primary screen (AID 588689); type: functional
Genome polyprotein, sequence (P29990 2492-3391 limits assumed): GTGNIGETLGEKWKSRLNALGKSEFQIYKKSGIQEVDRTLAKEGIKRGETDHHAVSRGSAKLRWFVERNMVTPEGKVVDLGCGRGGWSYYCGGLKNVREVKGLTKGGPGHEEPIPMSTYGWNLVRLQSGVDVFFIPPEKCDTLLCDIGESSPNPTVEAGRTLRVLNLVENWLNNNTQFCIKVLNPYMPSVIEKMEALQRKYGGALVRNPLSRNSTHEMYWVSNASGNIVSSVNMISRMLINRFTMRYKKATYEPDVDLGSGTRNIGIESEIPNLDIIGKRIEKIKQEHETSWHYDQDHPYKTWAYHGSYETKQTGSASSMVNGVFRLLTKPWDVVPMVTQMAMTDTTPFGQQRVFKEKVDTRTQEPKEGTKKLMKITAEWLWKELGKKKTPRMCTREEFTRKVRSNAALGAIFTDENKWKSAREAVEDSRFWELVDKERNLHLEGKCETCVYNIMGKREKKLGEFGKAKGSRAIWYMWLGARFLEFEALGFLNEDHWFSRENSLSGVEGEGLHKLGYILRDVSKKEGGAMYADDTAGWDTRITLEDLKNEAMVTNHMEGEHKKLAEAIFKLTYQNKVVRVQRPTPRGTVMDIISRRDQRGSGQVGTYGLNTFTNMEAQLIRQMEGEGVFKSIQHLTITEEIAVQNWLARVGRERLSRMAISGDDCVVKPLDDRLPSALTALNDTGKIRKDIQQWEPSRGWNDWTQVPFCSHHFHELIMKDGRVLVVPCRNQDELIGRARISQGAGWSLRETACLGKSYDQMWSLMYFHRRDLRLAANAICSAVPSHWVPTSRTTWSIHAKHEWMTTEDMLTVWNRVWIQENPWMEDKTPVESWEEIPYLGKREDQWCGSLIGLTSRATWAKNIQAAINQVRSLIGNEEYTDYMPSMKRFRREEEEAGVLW

[16] = target: Glyceraldehyde-3-phosphate dehydrogenase (Homo sapiens, UniProt P04406)
Glyceraldehyde-3-phosphate dehydrogenase, sequence (P04406 whole entry): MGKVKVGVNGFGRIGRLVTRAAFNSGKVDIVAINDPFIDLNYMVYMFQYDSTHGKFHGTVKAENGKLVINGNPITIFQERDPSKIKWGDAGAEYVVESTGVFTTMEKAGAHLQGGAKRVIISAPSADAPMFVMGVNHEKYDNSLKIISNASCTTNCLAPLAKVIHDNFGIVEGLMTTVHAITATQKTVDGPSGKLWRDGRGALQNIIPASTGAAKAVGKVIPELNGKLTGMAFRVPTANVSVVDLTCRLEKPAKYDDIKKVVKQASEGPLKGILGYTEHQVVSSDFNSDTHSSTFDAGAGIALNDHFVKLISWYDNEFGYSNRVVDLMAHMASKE

[17] = target: T1, Zinc finger protein mex-5 (Caenorhabditis elegans, UniProt Q9XUB2); test: potency of MEX-5 RNA-binding blockers – biochemical, C. elegans, fluorescence polarization, dose response (AID 1960)
T1 sequence (Q9XUB2 whole entry): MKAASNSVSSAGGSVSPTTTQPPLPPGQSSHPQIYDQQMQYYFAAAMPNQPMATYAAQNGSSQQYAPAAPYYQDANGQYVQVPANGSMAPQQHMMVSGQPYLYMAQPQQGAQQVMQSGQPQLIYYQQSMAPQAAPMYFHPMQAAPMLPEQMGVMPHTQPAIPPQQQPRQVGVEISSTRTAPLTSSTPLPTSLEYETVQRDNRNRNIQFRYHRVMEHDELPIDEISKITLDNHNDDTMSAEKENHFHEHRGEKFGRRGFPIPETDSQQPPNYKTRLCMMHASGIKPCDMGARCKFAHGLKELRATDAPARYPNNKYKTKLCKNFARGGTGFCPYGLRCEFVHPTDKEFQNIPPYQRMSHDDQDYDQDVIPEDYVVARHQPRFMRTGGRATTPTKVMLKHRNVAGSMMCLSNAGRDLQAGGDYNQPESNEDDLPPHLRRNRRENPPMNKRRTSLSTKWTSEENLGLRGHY

[18] = target: Heat shock 70 kDa protein 1A (Homo sapiens, UniProt P0DMV8); test: inhibition of Hsp70 binding activity – biochemical, fluorescence polarization, SAR follow-up (AID 1072)
Heat shock 70 kDa protein 1A, sequence (P0DMV8 whole entry): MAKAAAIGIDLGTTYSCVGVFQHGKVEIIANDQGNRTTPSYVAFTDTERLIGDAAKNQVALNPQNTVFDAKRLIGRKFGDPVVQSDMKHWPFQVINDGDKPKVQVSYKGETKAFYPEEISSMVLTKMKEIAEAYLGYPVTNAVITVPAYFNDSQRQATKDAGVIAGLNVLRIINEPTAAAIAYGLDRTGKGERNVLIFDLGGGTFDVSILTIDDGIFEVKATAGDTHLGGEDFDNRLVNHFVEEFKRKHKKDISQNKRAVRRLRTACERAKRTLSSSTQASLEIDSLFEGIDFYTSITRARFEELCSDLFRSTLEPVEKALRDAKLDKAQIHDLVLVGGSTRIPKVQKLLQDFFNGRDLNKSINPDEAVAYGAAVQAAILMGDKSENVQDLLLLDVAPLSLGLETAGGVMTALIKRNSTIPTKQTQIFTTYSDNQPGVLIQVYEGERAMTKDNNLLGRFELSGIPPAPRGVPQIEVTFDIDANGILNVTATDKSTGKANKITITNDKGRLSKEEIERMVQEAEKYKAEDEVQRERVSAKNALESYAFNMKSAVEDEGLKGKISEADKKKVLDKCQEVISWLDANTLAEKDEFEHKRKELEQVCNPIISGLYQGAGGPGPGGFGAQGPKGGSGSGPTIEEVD

ORF 73 = ORF 73 (Human herpesvirus 8, UniProt O40947); test: KSHV LANA DNA-binding disruption – biochemical, fluorescence polarization, cherry-picked samples, dose response (AID 504725); parameters: species or system Human gammaherpesvirus 8;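 also: fluorescence polarization of a labeled DNA duplex reporting LANA DNA binding; potency is for inhibitors that block LANA binding to the DNA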
ORF 73, sequence (O40947 whole entry): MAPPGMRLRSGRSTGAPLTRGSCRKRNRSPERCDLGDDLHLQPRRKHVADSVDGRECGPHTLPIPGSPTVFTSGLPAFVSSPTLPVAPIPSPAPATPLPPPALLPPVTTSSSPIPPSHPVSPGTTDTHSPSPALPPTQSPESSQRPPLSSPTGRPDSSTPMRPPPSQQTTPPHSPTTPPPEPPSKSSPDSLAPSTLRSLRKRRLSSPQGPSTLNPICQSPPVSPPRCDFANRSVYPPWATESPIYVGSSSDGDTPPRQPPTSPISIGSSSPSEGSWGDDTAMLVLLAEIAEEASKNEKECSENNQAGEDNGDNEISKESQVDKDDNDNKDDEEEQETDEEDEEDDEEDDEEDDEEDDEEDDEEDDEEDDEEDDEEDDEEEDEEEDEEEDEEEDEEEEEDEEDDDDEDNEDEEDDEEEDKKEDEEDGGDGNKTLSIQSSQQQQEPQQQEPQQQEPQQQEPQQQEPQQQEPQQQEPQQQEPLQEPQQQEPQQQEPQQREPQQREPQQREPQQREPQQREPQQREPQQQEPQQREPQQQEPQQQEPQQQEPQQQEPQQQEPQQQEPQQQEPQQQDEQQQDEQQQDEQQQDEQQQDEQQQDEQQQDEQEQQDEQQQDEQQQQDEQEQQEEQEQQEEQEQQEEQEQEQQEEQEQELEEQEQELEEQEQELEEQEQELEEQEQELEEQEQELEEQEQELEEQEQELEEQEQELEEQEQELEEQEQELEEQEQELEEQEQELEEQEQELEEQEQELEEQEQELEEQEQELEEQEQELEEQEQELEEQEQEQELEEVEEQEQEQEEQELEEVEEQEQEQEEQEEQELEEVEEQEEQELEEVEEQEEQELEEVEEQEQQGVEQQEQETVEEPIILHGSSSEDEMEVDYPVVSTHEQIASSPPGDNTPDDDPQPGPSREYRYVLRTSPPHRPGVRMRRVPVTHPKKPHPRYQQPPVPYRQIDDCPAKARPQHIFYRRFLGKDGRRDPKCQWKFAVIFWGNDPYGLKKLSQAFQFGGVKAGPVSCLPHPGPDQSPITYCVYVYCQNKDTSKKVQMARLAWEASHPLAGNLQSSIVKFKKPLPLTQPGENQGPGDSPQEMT

[19] = target: Heat shock cognate 71 kDa protein (Homo sapiens, UniProt P11142); test: In Vitro Hsc70 Dose Response Fluorescence Polarization Assay. [Related pubchem assays: 1072 ]
Heat shock cognate 71 kDa protein, sequence (P11142 whole entry, the tested form may be a part): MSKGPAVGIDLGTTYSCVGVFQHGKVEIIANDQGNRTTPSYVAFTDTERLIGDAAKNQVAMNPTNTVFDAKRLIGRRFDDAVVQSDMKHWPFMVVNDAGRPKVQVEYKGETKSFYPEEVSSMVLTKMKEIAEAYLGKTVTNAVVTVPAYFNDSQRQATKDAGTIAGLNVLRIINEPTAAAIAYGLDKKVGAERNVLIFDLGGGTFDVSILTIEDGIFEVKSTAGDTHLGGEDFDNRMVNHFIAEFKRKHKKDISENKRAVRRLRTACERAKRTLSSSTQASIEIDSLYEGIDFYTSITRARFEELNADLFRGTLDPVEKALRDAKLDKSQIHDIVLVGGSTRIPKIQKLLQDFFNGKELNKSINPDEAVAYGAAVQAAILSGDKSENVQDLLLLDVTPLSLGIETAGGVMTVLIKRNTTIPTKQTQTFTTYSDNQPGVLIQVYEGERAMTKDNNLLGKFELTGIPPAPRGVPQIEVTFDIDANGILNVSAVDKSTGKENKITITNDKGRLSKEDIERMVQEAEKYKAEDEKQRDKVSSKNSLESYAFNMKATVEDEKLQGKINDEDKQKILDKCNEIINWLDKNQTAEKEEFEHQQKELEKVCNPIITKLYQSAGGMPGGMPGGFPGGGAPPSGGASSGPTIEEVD

[20] = target: T2, RNA-binding protein pos-1 (Caenorhabditis elegans, UniProt G5EF15); test: disruptors of C. elegans POS-1 RNA interaction – biochemical, fluorescence polarization, dose response (AID 1964);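 also: purified POS-1 fused to maltose binding protein made in E. coli; potency of compounds blocking POS-1 binding to fluorescent RNA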
T2 sequence (G5EF15 whole entry): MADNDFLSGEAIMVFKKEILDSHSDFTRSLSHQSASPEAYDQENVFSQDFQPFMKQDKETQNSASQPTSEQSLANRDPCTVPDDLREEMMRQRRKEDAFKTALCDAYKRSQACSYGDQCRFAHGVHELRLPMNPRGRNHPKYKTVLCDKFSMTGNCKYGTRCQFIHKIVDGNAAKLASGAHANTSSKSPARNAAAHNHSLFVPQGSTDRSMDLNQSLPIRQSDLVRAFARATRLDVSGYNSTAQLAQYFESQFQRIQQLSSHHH

[21] = target: T3, Polyadenylate-binding protein 1 (Homo sapiens, UniProt P11940); test: MLLE domain peptide-binding blockers, IC50 – biochemical, fluorescence polarization, FITC-PAM2 peptide, dose response (AID 602259); type: functional; conditions: read-out: IC50_Mean
T3 sequence (P11940 whole entry, the tested form may be a part): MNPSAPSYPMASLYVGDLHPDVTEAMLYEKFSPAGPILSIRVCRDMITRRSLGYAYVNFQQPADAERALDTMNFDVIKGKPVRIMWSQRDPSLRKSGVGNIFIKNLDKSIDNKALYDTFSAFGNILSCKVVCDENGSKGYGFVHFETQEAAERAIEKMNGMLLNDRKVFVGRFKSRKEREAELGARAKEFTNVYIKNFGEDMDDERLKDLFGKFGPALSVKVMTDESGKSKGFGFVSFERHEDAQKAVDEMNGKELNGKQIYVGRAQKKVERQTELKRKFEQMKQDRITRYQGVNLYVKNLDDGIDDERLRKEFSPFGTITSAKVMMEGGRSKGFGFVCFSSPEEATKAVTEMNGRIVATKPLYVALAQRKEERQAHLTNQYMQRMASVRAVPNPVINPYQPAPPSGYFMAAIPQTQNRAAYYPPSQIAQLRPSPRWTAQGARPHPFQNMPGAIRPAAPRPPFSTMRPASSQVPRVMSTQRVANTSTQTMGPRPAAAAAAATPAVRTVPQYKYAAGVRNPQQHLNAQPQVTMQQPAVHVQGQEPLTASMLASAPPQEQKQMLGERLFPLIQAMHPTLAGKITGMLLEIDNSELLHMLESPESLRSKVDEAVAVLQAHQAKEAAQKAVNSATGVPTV

[22] = target: T3, Polyadenylate-binding protein 1; test: MLLE binding blockers, Cy5 peptide tracer – biochemical, fluorescence polarization, Cy5-PAM2 peptide, secondary, miRNA deadenylation inhibitor project, dose response (AID 602260); type: functional; conditions: read-out: IC50_Mean
Saccharomyces cerevisiae = test: S. cerevisiae Caspase-1/ASC signal blockers IC50, NALP1 inhibitor project selectivity test (AID 488863); type: functional, organism-based
[23] = target: NACHT, LRR and PYD domains-containing protein 1 (Homo sapiens, UniProt Q9C000); test: NALP1 inhibitors in yeast, dose response, luminescent (AID 488860); type: functional

## COc1ccc(N(C(=O)CCl)C(C(=O)NCCc2ccccc2)C2CCCCC2)cc1Cl (stereo not drawn)
[1]
  AC50: 0.496 µM (active)
[2]
  AC50: 0.505 µM (active)
[3]
  AC50: 1.48 µM (active)
[4]
  AC50: 1.18 µM (active)

## Cc1cc(C)cc(C(=O)N2CC(=O)Nc3ccccc32)c1
BJ [5]
  EC50: 3.38 µM (active)
[6]
  EC50: > 12 µM (inconclusive)
[7]
  EC50: < 0.1 µM (active)
[8]
  EC50: 0.921 µM (active)
BJ [9]
  EC50: 11.5 µM (inconclusive)
[10]
  IC50: > 80 µM (inactive)
[11]
  EC50: < 0.1 µM (active)
cells
  EC50: 0.858 µM (active)
J774.A1
  IC50: 0.161 µM (active)
BJ [12]
  EC50: 1.24 µM (inconclusive)
[13]
  AC50: > 30 µM (inactive)
[14]
  EC50: 1.09 µM (active)
[15]
  EC50: 0.817 µM (active)

## CCN(CC)C(=O)c1ccc2c(c1)C1C=CCC1C(C(=O)O)N2 (stereo not drawn)
Genome polyprotein
  IC50: 86.7 µM (active)
[16]
  IC50: > 100 µM (not active)
[17]
  EC50: 6.32 µM (active)
[18]
  IC50: > 100 µM (not active)
ORF 73
  AC50: 166 µM (active)
[19]
  IC50: > 100 µM (not active)
[20]
  EC50: 11.2 µM (active)

## Cc1ccc(N2C(=O)CC(Sc3ccccc3C(=O)O)C2=O)cc1 (stereo not drawn)
[21]
  IC50: > 66 µM (inactive)
[22]
  IC50: > 66 µM (inactive)
Saccharomyces cerevisiae
  IC50: 20.6 µM (active)
[23]
  IC50: 34.4 µM (active)
